The subject of data set [1] is Mycobacterium tuberculosis. The experiment in a line: Antimycobacterial activity against Mycobacterium tuberculosis H37Rv ATCC 27294 incubated for 5 days by microplate alamar blue assay. The following applies: H37Rv ATCC 27294, 120 h. It counts as functional.
Data set [2] in a line: Cytotoxicity against African green monkey Vero cells assessed as reduction in cell viability after 72 hrs by MTT assay. It counts as cell-based. The following applies: chlorocebus sabaeus.
The nature of data set [3]: Selectivity index, ratio of CC50 for African green monkey Vero cells to MIC for Mycobacterium tuberculosis H37Rv ATCC 27294. It counts as toxicity, cell-based. The following applies: read-out: Selectivity Index.

≈ marks a conversion by molar mass, not a printed value.

Take `Cc1c(C(=O)CSCCNC(=O)c2cccs2)[n+]([O-])c2ccccc2[n+]1[O-]`: 6.25 µg/mL (≈ 15.5 µM) was the least that counted as inhibitory in data set [1] (MIC). Further, the CC50 at 72 h in data set [2] was over 100 µg/mL. In addition, in data set [3], the selectivity ratio was over 16.

Take `Cc1c(C(=O)CSc2nc[nH]n2)[n+]([O-])c2ccccc2[n+]1[O-]`: in data set [1], the MIC turned out to be 0.39 µg/mL (≈ 1.23 µM). In addition, the 50% cytotoxic concentration (CC50) at 72 h in data set [2] was 50 µg/mL (≈ 158 µM). For the same molecule, in data set [3], the selectivity ratio was determined as 128. With `CC(=O)NCCSCC(=O)c1c(C)[n+]([O-])c2ccccc2[n+]1[O-]`, in data set [1], inhibition of growth (MIC) required 50 µg/mL (≈ 149 µM).

Consider `Cc1c(C(=O)CSc2ccc(F)cc2)[n+]([O-])c2ccccc2[n+]1[O-]`, for which the MIC in data set [1] is 0.39 µg/mL (≈ 1.13 µM). The CC50 at 72 h in data set [2] was 50 µg/mL (≈ 145 µM). The selectivity ratio in data set [3] was found to be 128. Turning to `Cc1c(C(=O)CN(C)C2CCCCC2)[n+]([O-])c2ccccc2[n+]1[O-]`, in data set [1], 50 µg/mL (≈ 152 µM) was the least that counted as inhibitory (MIC). For the molecule `Cc1ccc(SCC(=O)c2c(C)[n+]([O-])c3ccccc3[n+]2[O-])cc1`, inhibition of growth in data set [1] (MIC) required 0.78 µg/mL (≈ 2.29 µM). Also, in data set [2], the CC50 at 72 h came to 50 µg/mL (≈ 147 µM). In addition, the selectivity ratio in data set [3] came out at 64. For the molecule `Cc1c(C(=O)CSCCNC(=O)C2CCCCC2)[n+]([O-])c2ccccc2[n+]1[O-]`, the MIC in data set [1] worked out at 12.5 µg/mL (≈ 31 µM). As for `Cc1c(C(=O)CSc2nc3ccccc3o2)[n+]([O-])c2ccccc2[n+]1[O-]`, 3.13 µg/mL (≈ 8.52 µM) was the least that counted as inhibitory in data set [1] (MIC). In addition, the CC50 at 72 h in data set [2] came to 50 µg/mL (≈ 136 µM). Also, the selectivity ratio in data set [3] was found to be 16. In the case of `COc1ccc(SCC(=O)c2c(C)[n+]([O-])c3ccccc3[n+]2[O-])cc1`, in data set [1], the MIC worked out at 0.78 µg/mL (≈ 2.19 µM). The CC50 at 72 h in data set [2] came to 50 µg/mL (≈ 140 µM). Further, the selectivity ratio in data set [3] amounted to 64. In the same order, the values of `Cc1c(C(=O)CN(C)c2ccc(F)cc2)[n+]([O-])c2ccccc2[n+]1[O-]` are 6.25 µg/mL (≈ 18.3 µM), over 100 µg/mL and over 16.

For `Cc1c(C(=O)CSCCNC(=O)c2ccc3ccccc3c2)[n+]([O-])c2ccccc2[n+]1[O-]`, in data set [1], the minimal inhibitory concentration (MIC) worked out at 6.25 µg/mL (≈ 14 µM). Also, the CC50 at 72 h in data set [2] is over 100 µg/mL. For the same molecule, the selectivity ratio in data set [3] was over 16. `Cc1c(C(=O)CSCCNC(=O)c2ccncc2)[n+]([O-])c2ccccc2[n+]1[O-]`: the MIC in data set [1] amounted to 6.25 µg/mL (≈ 15.7 µM). The 50% cytotoxic concentration (CC50) at 72 h in data set [2] turned out to be 50 µg/mL (≈ 125 µM). Molecule `Cc1c(C(=O)CSCCO)[n+]([O-])c2ccccc2[n+]1[O-]` registered an MIC in data set [1] of 50 µg/mL (≈ 170 µM).

Consider `Cc1c(C(=O)CSCCN)[n+]([O-])c2ccccc2[n+]1[O-]`, for which the lowest concentration to inhibit growth in data set [1] (MIC) was 50 µg/mL (≈ 170 µM). Same read-out and setting: for `Cc1c(C(=O)CNc2nc3ccccc3[nH]2)[n+]([O-])c2ccccc2[n+]1[O-]` the value was 12.5 µg/mL (≈ 35.8 µM). For `Cc1c(C(=O)CSc2nc3ccccc3s2)[n+]([O-])c2ccccc2[n+]1[O-]`, inhibition of growth in data set [1] (MIC) required 1.56 µg/mL (≈ 4.07 µM). Also, the CC50 at 72 h in data set [2] was 50 µg/mL (≈ 130 µM). Besides, the selectivity ratio in data set [3] amounted to 32. `Cc1c(C(=O)CSCCNC(=O)c2ccc(F)cc2)[n+]([O-])c2ccccc2[n+]1[O-]` had a minimum inhibitory concentration (MIC) in data set [1] of 1.56 µg/mL (≈ 3.76 µM). In addition, in data set [2], the CC50 at 72 h is over 100 µg/mL. In addition, the selectivity ratio in data set [3] was over 128. In the same order, the values of `Cc1c(C(=O)CSc2nccs2)[n+]([O-])c2ccccc2[n+]1[O-]` are 3.13 µg/mL (≈ 9.39 µM), 50 µg/mL (≈ 150 µM) and 16. For the molecule `Cc1ccc(N(C)CC(=O)c2c(C)[n+]([O-])c3ccccc3[n+]2[O-])cc1`, it took 25 µg/mL (≈ 74.1 µM) to inhibit growth in data set [1] (MIC).

Consider `Cc1c(C(=O)CSc2ccccc2)[n+]([O-])c2ccccc2[n+]1[O-]`, for which inhibition of growth in data set [1] (MIC) required 1.56 µg/mL (≈ 4.78 µM). In addition, the 50% cytotoxic concentration (CC50) at 72 h in data set [2] worked out at 50 µg/mL (≈ 153 µM). The selectivity ratio in data set [3] stood at 32. As for `COc1ccc(C(=O)NCCSCC(=O)c2c(C)[n+]([O-])c3ccccc3[n+]2[O-])cc1`, the lowest concentration to inhibit growth in data set [1] (MIC) was 3.13 µg/mL (≈ 7.32 µM). For the same molecule, the CC50 at 72 h in data set [2] is over 100 µg/mL. The selectivity ratio in data set [3] was over 32.

In data set [1], `CCN(CC)CC(=O)c1c(C)[n+]([O-])c2ccccc2[n+]1[O-]` displayed an MIC of 50 µg/mL (≈ 173 µM). Still for that read-out and setting: to `Cc1c(C(=O)CN2CCN(C)CC2)[n+]([O-])c2ccccc2[n+]1[O-]` belongs 50 µg/mL (≈ 158 µM); to `Cc1c(C(=O)CNc2nccs2)[n+]([O-])c2ccccc2[n+]1[O-]`, 50 µg/mL (≈ 158 µM); to `Cc1c(C(=O)CSCCNC(=O)[C@@H](N)Cc2ccc(O)cc2)[n+]([O-])c2ccccc2[n+]1[O-]`, 25 µg/mL (≈ 54.8 µM).

In data set [1], `Cc1c(C(=O)CN(C)c2ccccc2)[n+]([O-])c2ccccc2[n+]1[O-]` returned a minimum inhibitory concentration (MIC) of 25 µg/mL (≈ 77.3 µM). As for `Cc1c(C(=O)CSc2nc3ccccc3[nH]2)[n+]([O-])c2ccccc2[n+]1[O-]`, the minimal inhibitory concentration (MIC) in data set [1] amounted to 6.25 µg/mL (≈ 17.1 µM). In data set [2], the CC50 at 72 h was 100 µg/mL (≈ 273 µM). Besides, the selectivity ratio in data set [3] stood at 16. In the same order, the values of `Cc1c(C(=O)CSCCNC(=O)[C@@H](N)Cc2c[nH]c3ccccc23)[n+]([O-])c2ccccc2[n+]1[O-]` are 6.25 µg/mL (≈ 13 µM), over 100 µg/mL and over 16. The matching figures for `Cc1c(C(=O)CSCCNC(=O)c2ccccc2)[n+]([O-])c2ccccc2[n+]1[O-]`: 6.25 µg/mL (≈ 15.7 µM), over 100 µg/mL and over 16. On to `Cc1c(C(=O)CN2CCCCC2)[n+]([O-])c2ccccc2[n+]1[O-]`, for which the MIC in data set [1] worked out at 25 µg/mL (≈ 83 µM). The same measure, in the same setting: for `Cc1c(C(=O)CSCCNC(=O)[C@@H](N)C(C)C)[n+]([O-])c2ccccc2[n+]1[O-]` the value was 25 µg/mL (≈ 63.7 µM). On the same count and under the same terms, to `Cc1c(C(=O)CN(C)Cc2ccccc2)[n+]([O-])c2ccccc2[n+]1[O-]` belongs 50 µg/mL (≈ 148 µM). On the same count and under the same terms, for `COc1cc(C(=O)NCCSCC(=O)c2c(C)[n+]([O-])c3ccccc3[n+]2[O-])cc(OC)c1OC` the value was 25 µg/mL (≈ 51.3 µM).

As for `NNC(=O)c1ccncc1` [ISONIAZID], it took 0.2 µg/mL (≈ 1.46 µM) to inhibit growth in data set [1] (MIC).

The values are drawn from ChEMBL document CHEMBL3826937, “Synthesis, 3D-QSAR analysis and biological evaluation of quinoxaline 1,4-di-N-oxide derivatives as antituberculosis agents” (Bioorg Med Chem Lett, 2016).
